ChEMBL document CHEMBL3091331, “Aminothiazole-featured pirinixic acid derivatives as dual 5-lipoxygenase and microsomal prostaglandin E2 synthase-1 inhibitors with improved potency and efficiency in vivo” (J Med Chem, 2013)
Calls of active or inactive are those of the source. No cut-off for these calls is given here.

Assays:
[1] = Metabolic stability in Sprague-Dawley rat liver microsomes assessed as compound remaining at 10 uM after 60 mins by HPLC analysis; assay type: ADME; conditions: read-out: Stability
[2] = biological target: T1, Prostaglandin E synthase (Homo sapiens, UniProt O14684); assay: Inhibition of mPGES-1 from human A549 cell microsomal membranes using PGH2 as substrate incubated 15 mins prior to substrate addition measured after 1 min by RP-HPLC analysis
T1 sequence (O14684 whole entry): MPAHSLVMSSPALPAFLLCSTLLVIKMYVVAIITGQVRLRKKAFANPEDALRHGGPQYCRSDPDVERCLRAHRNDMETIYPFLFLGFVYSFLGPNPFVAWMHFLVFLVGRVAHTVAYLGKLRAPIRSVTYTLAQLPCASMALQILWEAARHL

[3] = biological target: T2, Polyunsaturated fatty acid 5-lipoxygenase (Homo sapiens, UniProt P09917); assay: Inhibition of human recombinant 5-lipoxygenase expressed in Escherichia coli BL21 using arachidonic acid as substrate incubated 5 to 10 mins prior to substrate addition measured after 10 mins by HPLC analysis
T2 sequence (P09917 whole entry): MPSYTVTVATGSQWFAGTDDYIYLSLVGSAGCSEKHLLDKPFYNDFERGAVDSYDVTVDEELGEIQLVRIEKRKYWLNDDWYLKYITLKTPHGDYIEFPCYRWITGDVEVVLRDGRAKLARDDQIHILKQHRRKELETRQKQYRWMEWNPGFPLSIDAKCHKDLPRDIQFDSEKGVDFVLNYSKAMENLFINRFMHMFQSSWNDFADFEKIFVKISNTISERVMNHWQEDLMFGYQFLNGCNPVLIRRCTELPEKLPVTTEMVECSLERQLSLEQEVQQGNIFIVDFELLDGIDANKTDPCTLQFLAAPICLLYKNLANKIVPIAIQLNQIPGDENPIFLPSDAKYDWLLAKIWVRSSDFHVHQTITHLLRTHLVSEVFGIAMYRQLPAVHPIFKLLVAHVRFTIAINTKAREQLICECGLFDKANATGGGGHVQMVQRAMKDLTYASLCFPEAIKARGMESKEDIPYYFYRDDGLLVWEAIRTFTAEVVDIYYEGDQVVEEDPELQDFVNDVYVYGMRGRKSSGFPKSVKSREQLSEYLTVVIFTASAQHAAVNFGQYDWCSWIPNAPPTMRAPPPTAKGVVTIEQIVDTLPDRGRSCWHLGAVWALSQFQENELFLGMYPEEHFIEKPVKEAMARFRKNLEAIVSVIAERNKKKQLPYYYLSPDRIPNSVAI

[4] = biological target: T2, Polyunsaturated fatty acid 5-lipoxygenase; assay: Inhibition of 5-lipoxygenase in A23187-stimulated human polymorphonuclear leukocytes using arachidonic acid as substrate incubated 15 mins prior to substrate addition measured after 10 mins by HPLC analysis
[5] = biological target: T3, Prostaglandin E synthase (Homo sapiens) (UniProt O14684); assay: Inhibition of mPGES-1 (unknown origin) assessed as remaining activity at 10 uM; values are per cent of control
T3 sequence (whole entry): T1 sequence (O14684 whole entry)

[6] = biological target: T2, Polyunsaturated fatty acid 5-lipoxygenase; assay: Inhibition of 5-lipoxygenase in human polymorphonuclear leukocytes; assay type: cell-based
[7] = species: Homo sapiens; assay: Translocation of 5-lipoxygenase from cytosol into nuclear membrane in A23187-stimulated human polymorphonuclear leukocytes assessed as enzyme product formation at 10 uM incubated for 15 mins prior to A23187-challenge measured after 5 mins by Western blotting analysis; assay type: functional
[8] = biological target: T4, Polyunsaturated fatty acid 5-lipoxygenase (Homo sapiens) (UniProt P09917); assay: Ratio of IC50 for human recombinant 5-lipoxygenase expressed in Escherichia coli BL21 to IC50 for 5-lipoxygenase in human PMNL cells
T4 sequence (whole entry): T2 sequence (P09917 whole entry)

[9] = system: Radical scavenging activity; assay: Antioxidant activity assessed as DPPH radical scavenging activity at 25 to 100 uM after 30 mins; assay type: functional
[10] = system: Mus musculus; assay: Antiinflammatory activity in CD-1 mouse peritonitis model assessed as reduction in myeloperoxidase activity at 1 mg/kg, ip administered 30 mins prior to zymosan-challenge measured after 4 hrs by spectrophotometry relative to vehicle-treated control; assay type: functional; conditions: CD-1, ip, route intraperitoneal
[11] = system: Mus musculus; assay: Antiinflammatory activity in CD-1 mouse peritonitis model assessed as reduction in neutrophil infiltration at 1 mg/kg, ip administered 30 mins prior to zymosan-challenge measured after 4 hrs by spectrophotometry relative to vehicle-treated control; assay type: functional; conditions: CD-1, ip, route intraperitoneal
[12] = system: Mus musculus; assay: Antiinflammatory activity in CD-1 mouse peritonitis model assessed as reduction in vascular permeability at 1 mg/kg, ip administered 30 mins prior to zymosan-challenge measured after 4 hrs relative to vehicle-treated control; assay type: functional; conditions: CD-1, ip, route intraperitoneal
[13] = system: Mus musculus; assay: Reduction of PGE2 biosynthesis in CD-1 mouse peritonitis model at 1 mg/kg, ip administered 30 mins prior to zymosan-challenge measured after 4 hrs by RIA (reference value: 1.46 +/- 0.08 ng/ml); assay type: functional, organism-based; parameters: dose 1 mg/kg
[14] = system: Mus musculus; assay: Reduction of LTC4 formation in CD-1 mouse peritonitis model at 1 mg/kg, ip administered 30 mins prior to zymosan-challenge measured after 30 mins by EIA relative to vehicle-treated control; assay type: functional; conditions: CD-1, ip, route intraperitoneal
[15] = biological target: T4, Polyunsaturated fatty acid 5-lipoxygenase (Homo sapiens); assay: Inhibition of human recombinant 5-lipoxygenase expressed in Escherichia coli BL21 using arachidonic acid as substrate at 1 uM incubated 5 to 10 mins prior to substrate addition measured after 10 mins by HPLC analysis
[16] = biological target: T1, Prostaglandin E synthase; assay: Inhibition of mPGES-1 (unknown origin)

| Compound | IC50 [2] | IC50 [3] | IC50 [4] | further results |
| --- | --- | --- | --- | --- |
| CCCCCCC(Sc1nc(Cl)cc(Nc2nc(-c3ccccc3)c(C)s2)n1)C(=O)O (stereo not given) | 0.7 µM | 1.9 µM | 0.6 µM | remaining at 1 h, 10 µM [1]: 74% |
| CCCCCCC(Sc1nc(Cl)cc(Nc2cccc(C)c2C)n1)C(=O)O (stereo not given) |  |  | 3.9 µM |  |
| CCCCCCC(Sc1nc(Cl)cc(Nc2nc(-c3ccc4c(c3)CCCC4)cs2)n1)C(=O)O (stereo not given) | 0.4 µM | 2.3 µM | 0.4 µM |  |
| CCCCCCC(Sc1nc(Cl)cc(Nc2ccc3[nH]c(C(F)(F)F)nc3c2)n1)C(=O)O (stereo not given) |  |  |  | residual activity [5]: 43.4% |
| CCCCCCC(Sc1nc(Cl)cc(Nc2nc(-c3ccc(F)cc3F)cs2)n1)C(=O)O (stereo not given) | 1.8 µM | 2.5 µM | 1.5 µM |  |
| CCCCCCC(Sc1nc(Cl)cc(Nc2nc(-c3ccc(Cl)cc3Cl)cs2)n1)C(=O)O (stereo not given) | 0.4 µM | 1.1 µM | 0.8 µM |  |
| CCCCCC[C@H](Sc1nc(Cl)cc(Nc2nc(-c3ccc4ccccc4c3)cs2)n1)C(=O)O | 0.6 µM | 0.3 µM | 0.9 µM |  |
| CCCCCCC(Sc1nc(Cl)cc(Nc2ccc(-c3ccccc3)cc2)n1)C(=O)O (stereo not given) |  |  |  | IC50 [6]: 0.73 µM |
| CCCCCCC(Sc1nc(Cl)cc(Nc2nc(-c3ccc(Cl)cc3)cs2)n1)C(=O)O (stereo not given) | 0.7 µM | 0.8 µM | 0.9 µM |  |
| CCCCCCC(Sc1nc(Cl)cc(Nc2nc(-c3ccc(-c4ccccc4)cc3)cs2)n1)C(=O)O (stereo not given) | 0.5 µM | 0.6 µM | 0.3 µM |  |
| CC(C)=CCC[C@]1(C)[C@@H](CC=C(C)C)C[C@]2(CC=C(C)C)C(=O)C(CC=C(C)C)=C(O)[C@@]1(C(=O)C(C)C)C2=O |  |  |  | Activity [7]: Active |
| CCCCCCC(Sc1nc(Cl)cc(Nc2nc(-c3ccccc3)c(-c3ccccc3)s2)n1)C(=O)O (stereo not given) | 0.6 µM | 0.7 µM | 0.6 µM |  |
| CCCCCCC(Sc1nc(Cl)cc(Nc2nc(-c3ccccc3)c(CC)s2)n1)C(=O)O (stereo not given) | 1.7 µM | 1.8 µM | 0.7 µM |  |
| CCCCCCC(Sc1nc(Cl)cc(Nc2nc(-c3ccc(C)cc3)cs2)n1)C(=O)O (stereo not given) | 0.7 µM | 3 µM | 0.2 µM | Ratio IC50 [8]: 8 |
| O=C1O[C@H]([C@@H](O)CO)C(O)=C1O |  |  |  | Activity [9]: Active |
| CCCCCC[C@@H](Sc1nc(Cl)cc(Nc2nc(-c3ccc4ccccc4c3)cs2)n1)C(=O)O | 0.6 µM | 0.4 µM | 0.4 µM |  |
| CCCCCCC(Sc1nc(Cl)cc(Nc2nc(-c3ccc(Cl)c(Cl)c3)cs2)n1)C(=O)O (stereo not given) | 0.3 µM | 0.7 µM | 0.4 µM |  |
| CCC(Sc1nc(Cl)cc(Nc2nc(-c3ccc4ccccc4c3)cs2)n1)C(=O)O (stereo not given) | 1.4 µM | 2 µM | 2.9 µM |  |

| Compound | IC50 [2] | IC50 [3] | IC50 [4] | further results |
| --- | --- | --- | --- | --- |
| CCCCCCC(Sc1nc(Cl)cc(Nc2nc(-c3ccc(Br)cc3)cs2)n1)C(=O)O (stereo not given) | 0.8 µM | 0.7 µM | 0.3 µM |  |
| CCCCCCC(Sc1nc(Cl)cc(Nc2nc(C34CC5CC(CC(C5)C3)C4)cs2)n1)C(=O)O (stereo not given) | 0.9 µM | 5 µM | 3.3 µM |  |
| CCCCCCC(Sc1nc(Cl)cc(Nc2nc(-c3ccc([N+](=O)[O-])cc3)cs2)n1)C(=O)O (stereo not given) | 5 µM | 1.8 µM | 1.4 µM |  |
| O=C(O)CSc1nc(Cl)cc(Nc2nc(-c3ccc(Cl)cc3)cs2)n1 | 2.3 µM | > 10 µM | > 10 µM |  |
| CCCCCCC(Sc1nc(Cl)cc(Nc2nc(-c3ccccc3)cs2)n1)C(=O)O (stereo not given) | 0.8 µM | 2 µM | 0.6 µM |  |
| CC(C)c1ccc2c(c1)c(SC(C)(C)C)c(CC(C)(C)C(=O)O)n2Cc1ccc(Cl)cc1 |  |  |  | inhibition in vivo at 1 mg/kg [10]: 18%; inhibition in vivo at 1 mg/kg [11]: 34%; inhibition in vivo at 1 mg/kg [12]: 76%; inhibition [13]: inactive; inhibition in vivo at 1 mg/kg [14]: 94%; inhibition [15]: inactive |
| CCCCCCC(Sc1nc(Cl)cc(Nc2nc(-c3ccc(F)c(F)c3)cs2)n1)C(=O)O (stereo not given) | 1.6 µM | 2.3 µM | 1.5 µM |  |
| CCCCCCC(Sc1nc(Cl)cc(Nc2nc(-c3ccc(OC)cc3)cs2)n1)C(=O)O (stereo not given) | 1.3 µM | 1.8 µM | 0.8 µM |  |
| N[C@@H](CS)C(=O)O |  |  |  | Activity [9]: Active |
| CCCCCCC(Sc1nc(Cl)cc(Nc2nc3c(s2)CCc2cc(OC)ccc2-3)n1)C(=O)O (stereo not given) | 1.9 µM | 1.9 µM | 0.2 µM | Ratio IC50 [8]: 8 |
| O=C(O)C(Sc1nc(Cl)cc(Nc2nc(-c3ccc(Cl)cc3)cs2)n1)c1cccc2ccccc12 (stereo not given) | 0.5 µM | 0.7 µM | 0.4 µM |  |
| CCCCCCC(Sc1nc(Cl)cc(Nc2cccc(-c3ccccc3)c2)n1)C(=O)O (stereo not given) |  |  |  | IC50 [16]: 4 µM; IC50 [6]: 0.6 µM |
| CCCCCCC(Sc1nc(Cl)cc(Nc2nc(-c3ccc(Br)cc3)c(C)s2)n1)C(=O)O (stereo not given) | 1.3 µM | 1.6 µM | 0.2 µM | Ratio IC50 [8]: 8 |
| CCOc1ccc2ccc(=O)oc2c1 [ETHOXYCOUMARIN] |  |  |  | remaining at 1 h, 10 µM [1]: 31% |
| CCC(Sc1nc(Cl)cc(Nc2nc(-c3ccc(Cl)cc3)cs2)n1)C(=O)O (stereo not given) | 1.4 µM | 6.6 µM | 3.6 µM |  |
| CCCCCCC(Sc1nc(Cl)cc(Nc2nc(-c3ccc(C(F)(F)F)cc3)cs2)n1)C(=O)O (stereo not given) | 0.4 µM | 1.2 µM | 0.6 µM |  |
| CCCCC(Sc1nc(Cl)cc(Nc2nc(-c3ccc(Cl)cc3)cs2)n1)C(=O)O (stereo not given) | 1.2 µM | 3.8 µM | 0.9 µM |  |
| CCCCCCC(Sc1nc(Cl)cc(Nc2nc(-c3cccc4ccccc34)cs2)n1)C(=O)O (stereo not given) | 1.7 µM | 0.7 µM | 0.4 µM |  |
